Experimental data published in the METLIN SMRT retention time set (Domingo-Almenara et al. 2019).

Experiment: gradient 5% acetonitrile 3 min, to 50% in 2 min, to 85% in 15 min, held 3 min, 100 µL/min
Conditions: column: Zorbax Extend-C18 2.1 x 50 mm; eluents: water / acetonitrile, 0.1% formic acid
In short: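 Standards, all pure, were combined into mixtures of ~100 molecules and run at 100 μL/min on a Zorbax Extend-C18 column (2.1 × 50 mm, 1.8 μm) with water and acetonitrile, each containing 0.1% formic acid. A coupled quadrupole time-of-flight mass spectrometer operated in positive and negative ionization mode. Retention time values come from computationally picked adduct peaks, each inspected manually.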

Row | SMILES | RP-LC retention time [s]
1 | CCc1noc(COC2CCCN(C(=O)NCCc3ccccc3)C2)n1 (configuration not stated) | 796
2 | Cc1ccc(C(=O)N2[C@H]3CC[C@@H]2c2cnc(-c4ccc(F)cc4)nc2C3)cn1 | 735
3 | CC(C)c1nccn1C1CN(C(=O)CCCc2c[nH]c3ccccc23)C1 | 631
4 | CCNC(=O)c1ccc(-c2ccc3c(c2)CCN3C(C)=O)cc1 | 691
5 | O=C1CCCc2nc(N3CCN(CCO)CC3)nc(Nc3ccccc3)c21 | 644
6 | CCC1(O)CCC12CCN(C(=O)C1CC1)CC2 (configuration not stated) | 678
7 | CCCn1c(C)cnc1C1CN(S(=O)(=O)c2ccc(C)c(Cl)c2)C1 | 710
8 | CCOc1ccccc1CNC(=O)C1CCN(C(=O)c2ncn3c2COC(c2ccccc2)C3)CC1 (configuration not stated) | 803
9 | O=C1NCCCn2cc(S(=O)(=O)N3CCCCCC3)cc21 | 661
10 | Cc1ccc(Cn2c(CN3CC(C)OC(C)C3)nc3c2c(=O)n(C)c(=O)n3C)cc1 (configuration not stated) | 700
11 | O=C1C(=O)N(C2CCN(S(=O)(=O)c3ccc(F)c(F)c3)CC2)CCN1Cc1ccccc1 | 827
12 | CC(=O)N(C1CCOCC1)C1CCN(C(=O)Nc2ccccc2)CC1 | 655
13 | Cc1cc(C)c(NS(=O)(=O)c2cc(-c3nc(C)cs3)sc2C)c(C)c1 | 1190
14 | CCC(C(=O)N1CCN(c2cc(-c3ccc(Cl)cc3)[nH]n2)CC1)c1ccccc1 (configuration not stated) | 987
15 | CSc1ccc(C(C(C(=O)c2ccco2)N2CCOCC2)N2CCOCC2)cc1 (configuration not stated) | 698
16 | O=C(NCCC1CCN(C(=O)Nc2ccc(F)cc2F)CC1)C1CC1 | 691
17 | COC(=O)c1cc(OC)c(OC)cc1NC(=O)c1c(C)coc1C | 940
18 | Cc1ccccc1N1CCN(S(=O)(=O)c2ccc(-c3nnc(C4CC4)o3)o2)CC1 | 1090
19 | CCc1ccccc1NC(=O)N1CCC(N(CCC(C)C)C2CCOCC2)CC1 | 665

Row | SMILES | RP-LC retention time [s]
20 | C[C@@H]1CN(C(=O)c2ccoc2)C[C@H]1c1nc(-c2ccccc2)no1 | 879
21 | CCC(=O)N(C1CCOCC1)C1CCN(S(=O)(=O)c2ccc(F)c(C)c2)CC1 | 836
22 | Cc1noc(-c2ccc(NC(=O)c3cn(C)nn3)cc2)n1 | 658
23 | NC(=O)C1CCN(C(=O)c2cn(-c3cccc(F)c3)nn2)CC1 | 608
24 | CCC(=O)N1CC(=O)Nc2ccc(Br)cc2C1c1ccccc1 (configuration not stated) | 749
25 | CCn1c(=O)c(N2CCN(C(=O)Nc3ccc(Br)cc3)CC2)nc2ccccc21 | 1030
26 | CCN1CCCCc2cc(C(=O)NCCN3CCCCC3C)sc21 (configuration not stated) | 698
27 | O=C1CC(C(=O)N2CCOCC2)CN1CCc1c[nH]c2ccc(Cl)cc12 (configuration not stated) | 677
28 | CCOC(=O)C1=C(CN2CCCCC2)NC(=O)NC1c1ccc(OC(C)C)cc1 (configuration not stated) | 646
29 | CC(=O)N1CCc2sc(S(=O)(=O)N3CCN(c4ccccc4F)CC3)cc2C1 | 905
30 | O=C(Nc1ncc(-c2ccccc2)s1)c1ccc(S(=O)(=O)N2CCCCC2)cc1 | 1040
31 | O=C(c1cnccn1)N1CCC(c2nc(-c3ccccc3)no2)C1 (configuration not stated) | 758
32 | Cc1ccc(Cl)cc1N1CCN(C(=O)C2CCN(c3ncnc4c3oc3ccccc34)CC2)CC1 | 1060
33 | Cc1nnc2c(NC(=O)c3ccncc3)cccn12 | 575
34 | CC1=C(c2ccc(C)cc2)S(=O)(=O)N=C1N1CCCN(C(=O)CC2CCCC2)CC1 | 910
35 | CCN(CC(=O)N1CCC(C(N)=O)CC1)S(=O)(=O)c1ccc(F)cc1 | 635
36 | O=C(NCc1ccc2c(c1)N(C(=O)c1ccccc1)CC2)c1cccs1 | 814
37 | O=C(N1CCCC1c1noc(COCc2ccccc2)n1)C1(c2ccccc2)CC1 (configuration not stated) | 1040
38 | CCOC(=O)C(C)Sc1nnc(NC(=O)C2CC2)s1 (configuration not stated) | 708

Further lines, results first:

Row | RP-LC retention time [s] | SMILES
39 | 683 | CCOc1ccc(-n2c(N3CCN(CC)CC3)nc3cc(C(=O)OC)ccc3c2=O)cc1
40 | 803 | Cc1ccc(NC(=O)Nc2cccn3nc(C)nc23)cc1
41 | 761 | COc1ccc2nc(NC(=O)Cn3nc(C(=O)N4CCOCC4)c4ccccc43)sc2c1
42 | 945 | Cc1cc(-c2nnc(-c3ccc(F)cc3)o2)c(C)n1CC(=O)NCc1ccc(F)cc1
43 | 901 | Cc1ccc(NC(=O)CSc2nc(N3CCCCC3)nc3ccccc23)c(Cl)c1
44 | 702 | COc1ccc(OC)c(S(=O)(=O)N(C)C)c1
45 | 936 | Cc1ccc(NC(=O)c2cnc3c(c2)c(=O)n(C)c(=O)n3-c2ccc(F)cc2)cc1
46 | 773 | Cc1ccc(CNC(=O)c2cn(-c3ccc(NC(=O)C4CC4)cn3)cn2)cc1
47 | 636 | COc1cc(C(=O)Nc2c(-c3ccccc3)nc3ccccn23)cc(OC)c1OC
48 | 918 | Cc1ccc(-c2noc(Cn3ccn(-c4ccc(Cl)cc4)c(=O)c3=O)n2)cc1
49 | 944 | O=c1ccc(-c2ccccc2F)nn1Cc1nc(-c2ccc3c(c2)OCO3)no1
50 | 674 | Cc1ccc(-c2cc3c(=O)n(Cc4noc(CN5CCCCC5C)n4)ccn3n2)cc1 (configuration not stated)
51 | 820 | COc1cccc(C(=O)NCCc2c[nH]c3ccc(F)cc23)c1
52 | 646 | O=C(CN1c2ccc(F)cc2-c2ccccc2S1(=O)=O)NCc1cccnc1
53 | 954 | COc1cc(OC)c(NC(=O)CN2C(=O)C(C)(C)c3ccccc32)cc1Cl
54 | 1180 | CCOc1ccc(-c2noc(CN3C(=O)COc4cc(Cl)ccc43)n2)cc1
55 | 808 | Cc1nnc(-c2ccc3ccn(CC(=O)Nc4cccc(F)c4)c3c2)o1
56 | 1280 | CCOc1ccc(-c2nc(-c3ccc4oc(CC)nc4c3)no2)cc1
57 | 1040 | CCn1c(=O)c(C)nc2cc(-c3noc(-c4ccc(Br)o4)n3)ccc21
58 | 681 | CCc1nc2c(c(=O)n1CC(=O)Nc1cc(C)ccc1OC)CN(Cc1ccccc1)CC2
59 | 1070 | COc1ccc(Cl)cc1C(=O)Nc1cnc(N2CCCCC2)nc1
60 | 969 | Fc1cccc(-c2nn3c(CSc4ccccc4)nnc3s2)c1
61 | 944 | COc1ccc(-c2nc(C3CC(=O)N(c4ccc(Cl)cc4)C3)no2)cc1OC (configuration not stated)
62 | 716 | Cc1ccc(-c2nc3ccccn3c2NC(=O)Nc2cccc(C)c2)cc1
63 | 916 | COc1ccc(CCc2nc3nccc(-c4ccc(F)cc4OC)n3n2)cc1
64 | 814 | Cc1ccccc1Nc1c(-c2cc(Br)ccc2F)nc2cccc(C)n12
65 | 921 | COc1ccc(C(=O)NCCc2sc(-c3cccc(F)c3)nc2C)c(OC)c1
66 | 861 | O=c1ccc(N2CCCN(S(=O)(=O)c3ccc(F)c(F)c3)CC2)nn1-c1ccccc1
67 | 924 | Cc1ccc(CNC(=O)c2cc(C)n3nc(-c4ccccn4)cc3n2)cc1
